These results are taken from ChEMBL document CHEMBL5512685, “Discovery of a Promising CBP/p300 Degrader XYD129 for the Treatment of Acute Myeloid Leukemia” (J Med Chem, 2024).

Data set [1] has as its system MV4-11. Nature of the data set: Potency index, ratio of Y08207 IC50 to test compound IC50 for antiproliferative activity against human MV4-11 cells assessed as inhibition of cell growth incubated for 120 hrs by celltiter glo luminescence analysis. Type of data set: functional.
For data set [2], the system named is MV4-11. The data set can be described thus: Antiproliferative activity against human MV4-11 cells assessed as inhibition of cell growth incubated for 120 hrs by celltiter glo luminescence analysis. Type of data set: functional, cell-based. Conditions: MV4-11, 120 h.
Another data set concerns the target CREB-binding protein (Homo sapiens, UniProt Q92793). Nature of the data set: Inhibition of C-terminal biotinylated tetra-acetylated histone peptide H4 binding to His6-fused human CBP bromodomain (R1081 to G1197 residues) incubated for 1 hrs by HTRF assay. Background: In TR-FRET formats the signal depends on donor and acceptor labels being close together.
A short description of data set [3]: Cytotoxicity against human HL7702 cells assessed as inhibition of cell growth incubated for 72 hrs by celltiter glo luminescence analysis. Type of data set: toxicity, cell-based. As to conditions: HL7702 (L02) cells. A general note: In ATP-based viability assays light output follows the ATP content of the culture.
The target in data set [4] is T1, Protein cereblon/Histone acetyltransferase p300 (Homo sapiens) (UniProt Q09472+Q96SW2). Nature of the data set: PROTAC activity at CRBN/p300 in human MOLM16 cells assessed as induction of p300 degradation incubated for 24 hrs by Western blot analysis. Type of data set: cell-based. As to conditions: dose 0-1000 nM. A general note: A western blot detects proteins with antibodies after separation by electrophoresis.

Data set [5] addresses T1, Protein cereblon/Histone acetyltransferase p300 (Homo sapiens). The data set can be described thus: PROTAC activity at CRBN/p300 in human MOLM16 cells assessed as induction of p300 degradation at 1000 nM incubated for 24 hrs by Western blot analysis relative to control. It counts as cell-based.
Data set [6] deals with T2, Protein cereblon/CREB-binding protein (Homo sapiens) (UniProt Q92793+Q96SW2). Nature of the data set: PROTAC activity at CRBN/CBP in human MOLM16 cells assessed as induction of CBP degradation incubated for 24 hrs by Western blot analysis. Type of data set: cell-based. Conditions: dose 0-1000 nM.
In data set [7] the target is Histone acetyltransferase p300 (Homo sapiens, UniProt Q09472). Nature of the data set: Inhibition of C-terminal biotinylated tetra-acetylated histone peptide H4 binding to His6-fused human p300 bromodomain (A1040 to G1161 residues) incubated for 1 hrs by HTRF assay.
A short description of data set [8]: Antiproliferative activity against human MOLM16 cells assessed as inhibition of cell growth incubated for 72 hrs by celltiter glo luminescence analysis. Type of data set: functional, cell-based, MOLM-16. Conditions: MOLM16, 72 h.
The target in another data set is Protein cereblon (Homo sapiens, UniProt Q96SW2). The data set can be described thus: Inhibition of biotinylated thalidomide binding to CRBN (40 to 442 residues) (unknown origin) incubated for 1 hrs by HTRF assay.
The subject of the next data set is KG-1. The data set can be described thus: Antiproliferative activity against human KG-1 cells assessed as inhibition of cell growth incubated for 72 hrs by celltiter glo luminescence analysis. Type of data set: functional, cell-based. Conditions: KG-1, 72 h.
For data set [9], the target named is T2, Protein cereblon/CREB-binding protein (Homo sapiens). Nature of the data set: PROTAC activity at CRBN/CBP in human MOLM16 cells assessed as induction of CBP degradation at 1000 nM incubated for 24 hrs by Western blot analysis relative to control. It counts as cell-based.

As usually defined, the IC50 is the concentration at which inhibition is half-maximal.

For the molecule `CC(=O)c1cc(C(=O)Nc2cc(CO)cc(-c3cnn(C)c3)c2F)c2cc(OCCCCCCC(=O)NCC#Cc3cccc4c3C(=O)N(C3CCC(=O)NC3=O)C4=O)ccn12` (stereo not drawn), in the data set on MV4-11 [1], the “Ratio IC50” value is reported as roughly 2. Further, the IC50 with MV4-11 [2] is 3.93 µM.
On to `CC(=O)c1cc(C(=O)Nc2cc(CO)cc(-c3cnn(C)c3)c2F)c2cc(OCCCCCC(=O)NCC#Cc3cccc4c3C(=O)N(C3CCC(=O)NC3=O)C4=O)ccn12` (stereo not drawn), for which the IC50 with MV4-11 [2] is 13 µM.
Take `CC(=O)c1cc(C(=O)Nc2cc(CO)cc(-c3cnn(C)c3)c2F)c2cc(OCCCC(=O)NCCNc3cccc4c3C(=O)N(C3CCC(=O)NC3=O)C4=O)ccn12` (stereo not drawn): the IC50 on CREB-binding protein was 0.073 µM; in the data set on MV4-11 [2], 0.42 µM; in [7], 0.077 µM; in data set [8], 0.021 µM; on Protein cereblon, 1.1 µM; with KG-1, 3.95 µM. The IC50 at 72 h in [3] is greater than 100 µM. Further, the Activity entry in [4] was “Dose-Dependent Effect”; in data set [5] it was 100%; in data set [6] it was “Dose-Dependent Effect”; in data set [9], 100%.
For the molecule `CC(=O)c1cc(C(=O)Nc2cc(CO)cc(-c3cnn(C)c3)c2F)c2cc(OC3CCN(C(=O)CCOCCOCCOCCNc4cccc5c4C(=O)N(C4CCC(=O)NC4=O)C5=O)CC3)ccn12` (stereo not drawn), in the data set on MV4-11 [2], the IC50 was determined as 5.39 µM.
On the same count and under the same terms, the value for `CC(=O)c1cc(C(=O)Nc2cc(CO)cc(-c3cnn(C)c3)c2F)c2cc(OC3CCN(C(=O)CCOCCNc4cccc5c4C(=O)N(C4CCC(=O)NC4=O)C5=O)CC3)ccn12` (stereo not drawn) was 8.03 µM; that for `CC(=O)c1cc(C(=O)Nc2cc(CO)cc(-c3cnn(C)c3)c2F)c2cc(OCCCC(=O)NCCCc3cccc4c3C(=O)N(C3CCC(=O)NC3=O)C4=O)ccn12` (stereo not drawn) was 1.48 µM; that for `CC(=O)c1cc(C(=O)Nc2cc(CO)cc(-c3cnn(C)c3)c2F)c2cc(OCC(=O)NCCCCNc3ccc4c(c3)C(=O)N(C3CCC(=O)NC3=O)C4=O)ccn12` (stereo not drawn) was greater than 20 µM.
As to `CC(=O)c1cc(C(=O)Nc2cc(CO)cc(-c3cnn(C)c3)c2F)c2cc(OCCCCCC(=O)NCCCc3cccc4c3C(=O)N(C3CCC(=O)NC3=O)C4=O)ccn12` (stereo not drawn), the IC50 on CREB-binding protein worked out at 0.068 µM; with MV4-11 [2] it was 0.46 µM; in data set [7] it was 0.046 µM; in data set [8] it was 0.054 µM; at Protein cereblon, 0.79 µM; in the data set with KG-1, 4.77 µM. For the same molecule, the IC50 at 72 h in data set [3] is greater than 100 µM. The “Ratio IC50” value with MV4-11 [1] is listed as roughly 8.
Take `CC(=O)c1cc(C(=O)Nc2cc(CO)cc(-c3cnn(C)c3)c2F)c2cc(OCCCC(=O)NCCCCCCNc3cccc4c3C(=O)N(C3CCC(=O)NC3=O)C4=O)ccn12` (stereo not drawn): the IC50 in the data set on MV4-11 [2] was greater than 20 µM.
Turning to `CC(=O)c1cc(C(=O)Nc2cc(CO)cc(-c3cnn(C)c3)c2F)c2cc(OCC(=O)NCCCNc3cccc4c3C(=O)N(C3CCC(=O)NC3=O)C4=O)ccn12` (stereo not drawn), in the data set on MV4-11 [1], the “Ratio IC50” value is reported as 6. In addition, the IC50 with MV4-11 [2] was found to be 1.06 µM.
In the case of `CC(=O)c1cc(C(=O)Nc2cc(CO)cc(-c3cnn(C)c3)c2F)c2cc(OCCCCC(=O)NCC#Cc3cccc4c3C(=O)N(C3CCC(=O)NC3=O)C4=O)ccn12` (stereo not drawn), in the data set with MV4-11 [2], the IC50 is 21.2 µM.
On the same count and under the same terms, the value for `CC(=O)c1cc(C(=O)Nc2cc(CO)cc(-c3cnn(C)c3)c2F)c2cc(OCCCC(=O)NCCCCNc3cccc4c3C(=O)N(C3CCC(=O)NC3=O)C4=O)ccn12` (stereo not drawn) was greater than 20 µM; that for `CC(=O)c1cc(C(=O)Nc2cc(CO)cc(-c3cnn(C)c3)c2F)c2cc(OCC(=O)NCCNc3cccc4c3C(=O)N(C3CCC(=O)NC3=O)C4=O)ccn12` (stereo not drawn) was greater than 20 µM.
Same read-out and setting: as for `CC(=O)c1cc(C(=O)Nc2cc(CO)cc(-c3cnn(C)c3)c2F)c2cc(OC3CCN(C(=O)CCOCCOCCNc4cccc5c4C(=O)N(C4CCC(=O)NC4=O)C5=O)CC3)ccn12` (stereo not drawn), the figure is 11.1 µM.
On to `CC(=O)c1cc(C(=O)Nc2cc(CO)cc(-c3cnn(C)c3)c2F)c2cc(OCCCCCCCC(=O)NCC#Cc3cccc4c3C(=O)N(C3CCC(=O)NC3=O)C4=O)ccn12` (stereo not drawn), for which, in the data set with MV4-11 [1], the “Ratio IC50” value is recorded as roughly 2. In addition, the IC50 in the data set on MV4-11 [2] came out at 3.25 µM.
As to `CC(=O)c1cc(C(=O)Nc2cc(CO)cc(-c3cnn(C)c3)c2F)c2cc(OCCCC(=O)NCCCCCCCCNc3cccc4c3C(=O)N(C3CCC(=O)NC3=O)C4=O)ccn12` (stereo not drawn), the IC50 in the data set with MV4-11 [2] was greater than 20 µM.
On to `CO[C@H]1CC[C@H](n2c([C@@H]3CCCC(=O)N3c3ccc(F)c(F)c3)nc3cc(-c4c(C)noc4C)ccc32)CC1` [INOBRODIB], for which the IC50 at 72 h in data set [3] stood at 20 µM. For the same molecule, the IC50 in the data set on MV4-11 [2] was 0.014 µM; in data set [8], 0.37 µM; at Protein cereblon, greater than 100 µM; with KG-1, 17 µM.
As for `CC(=O)c1cc(C(=O)Nc2cc(CO)cc(-c3cnn(C)c3)c2F)c2cc(OCCCC(=O)NCCNc3ccc4c(c3)C(=O)N(C3CCC(=O)NC3=O)C4=O)ccn12` (stereo not drawn), the IC50 in the data set with MV4-11 [2] was 17.8 µM.
Still for that read-out and setting: the value for `CC(=O)c1cc(C(=O)Nc2cc(CO)cc(-c3cnn(C)c3)c2F)c2cc(OC3CCN(C(=O)CCOCCOCCOCCOCCNc4cccc5c4C(=O)N(C4CCC(=O)NC4=O)C5=O)CC3)ccn12` (stereo not drawn) was 4.89 µM.
`CC(=O)c1cc(C(=O)Nc2cc(CO)cc(-c3cnn(C)c3)c2F)c2cc(OCCCCC(=O)NCCCc3cccc4c3C(=O)N(C3CCC(=O)NC3=O)C4=O)ccn12` (stereo not drawn): the IC50 came to 0.02 µM on CREB-binding protein, 0.75 µM with MV4-11 [2], 0.022 µM in [7] and 0.47 µM at Protein cereblon. The “Ratio IC50” value in the data set with MV4-11 [1] is roughly 8.
Take `CC(=O)c1cc(C(=O)Nc2cc(CO)cc(-c3cnn(C)c3)c2F)c2cc(OCCCCCCCC(=O)NCCCc3cccc4c3C(=O)N(C3CCC(=O)NC3=O)C4=O)ccn12` (stereo not drawn): the IC50 in the data set with MV4-11 [2] was 1.25 µM.
The same measure, in the same setting: as for `CC(=O)c1cc(C(=O)Nc2cc(CO)cc(-c3cnn(C)c3)c2F)c2cc(OCC(=O)NCCCc3cccc4c3C(=O)N(C3CCC(=O)NC3=O)C4=O)ccn12` (stereo not drawn), the figure is 7.51 µM.
With `CC(=O)c1cc(C(=O)Nc2cc(CO)cc(-c3cnn(C)c3)c2F)c2cc(OCCCCCCC(=O)NCCCc3cccc4c3C(=O)N(C3CCC(=O)NC3=O)C4=O)ccn12` (stereo not drawn), the IC50 at CREB-binding protein was determined as 0.036 µM; in the data set on MV4-11 [2], 1.03 µM; in data set [7] it was 0.051 µM; on Protein cereblon, 7 µM.
On to `CC(=O)c1cc(C(=O)Nc2cc(CO)cc(-c3cnn(C)c3)c2F)c2cc(OCC(=O)NCC#Cc3cccc4c3C(=O)N(C3CCC(=O)NC3=O)C4=O)ccn12` (stereo not drawn), for which, in the data set on MV4-11 [2], the IC50 stood at 23 µM.
Regarding `CC(=O)c1cc(C(=O)Nc2cc(CO)cc(-c3cnn(C)c3)c2F)c2cc(O)ccn12`, the IC50 at CREB-binding protein was 0.006 µM; in the data set on MV4-11 [2] it was 6.37 µM; in [7], 0.007 µM; in data set [8], 13.5 µM; on Protein cereblon, greater than 100 µM; in the data set on KG-1, 11.6 µM. Moreover, the IC50 at 72 h in [3] worked out at 38.3 µM.
For `CC(=O)c1cc(C(=O)Nc2cc(CO)cc(-c3cnn(C)c3)c2F)c2cc(OCCCC(=O)NCC#Cc3cccc4c3C(=O)N(C3CCC(=O)NC3=O)C4=O)ccn12` (stereo not drawn), the IC50 in the data set on MV4-11 [2] worked out at 23.2 µM.
